Results as given in ChEMBL document CHEMBL3885881, “DrugMatrix”.

Species on record: Rattus norvegicus
Experiment: DrugMatrix - Regimen: Daily Repeat
Format: toxicity, organism-based, Sprague-Dawley
Parameters: regimen Daily Repeat, gender Male, age 6-8 weeks
Conditions: in vivo, po, route oral GAVAGE, vehicle .5 % CMC; for BASOPHIL / EOSINOPHIL / ERYTHROCYTE COUNT / HEMATOCRIT / HEMOGLOBIN / LEUKOCYTE COUNT / LYMPHOCYTE / MEAN CORPUSCULAR HEMOGLOBIN / MEAN CORPUSCULAR HEMOGLOBIN CONCENTRATION / MEAN CORPUSCULAR VOLUME / MONOCYTE / NEUTROPHIL / PLATELET COUNT: tissue Blood; for ALANINE AMINOTRANSFERASE / ALBUMIN / ALKALINE PHOSPHATASE / ASPARTATE AMINOTRANSFERASE / BLOOD UREA NITROGEN / CHLORIDE / CHOLESTEROL / CREATINE PHOSPHOKINASE / CREATININE / GLUCOSE / PHOSPHORUS / POTASSIUM / SODIUM / TOTAL PROTEIN: tissue Plasma
[1] = 0 mg/kg, 72 h, dose level Control, time 3 day
[2] = 0 mg/kg, 120 h, dose level Control, time 5 day
[3] = 50 mg/kg, 72 h, dose level Low, time 3 day
[4] = 50 mg/kg, 120 h, dose level Low, time 5 day
[5] = 2000 mg/kg, 72 h, dose level High, time 3 day
[6] = 2000 mg/kg, 120 h, dose level High, time 5 day

SMILES: NC1CCN(c2nc3c(cc2F)c(=O)c(C(=O)O)cn3-c2ccc(F)cc2F)C1 (configuration not stated) [TOSUFLOXACIN]
- BASOPHIL [1]: 0%
- EOSINOPHIL [1]: 0.4%
- ERYTHROCYTE COUNT [1]: 6.43 x10E6/uL
- HEMATOCRIT [1]: 37.36%
- HEMOGLOBIN [1]: 13.98 G/DL
- LEUKOCYTE COUNT [1]: 13 x10E3/uL
- LYMPHOCYTE [1]: 81.4%
- MEAN CORPUSCULAR HEMOGLOBIN [1]: 21.9 pg
- MEAN CORPUSCULAR HEMOGLOBIN CONCENTRATION [1]: 37.4 G/DL
- MEAN CORPUSCULAR VOLUME [1]: 58.52 fL
- MONOCYTE [1]: 0.4%
- NEUTROPHIL [1]: 18%
- PLATELET COUNT [1]: 1386 x10E3/uL
- ALANINE AMINOTRANSFERASE [1]: 39.33 u/L
- ALBUMIN [1]: 3.57 G/DL
- ALKALINE PHOSPHATASE [1]: 283.83 u/L
- ASPARTATE AMINOTRANSFERASE [1]: 69.5 u/L
- BLOOD UREA NITROGEN [1]: 14.83 mg/dL
- CHLORIDE [1]: 107.33 MEQ/L
- CHOLESTEROL [1]: 75.17 mg/dL
- CREATINE PHOSPHOKINASE [1]: 107.67 u/L
- CREATININE [1]: 0.48 mg/dL
- GLUCOSE [1]: 172.5 mg/dL
- PHOSPHORUS [1]: 10.48 mg/dL
- POTASSIUM [1]: 6.9 MEQ/L
- SODIUM [1]: 152.33 MEQ/L
- TOTAL PROTEIN [1]: 5.9 G/DL
- BASOPHIL [2]: 0%
- EOSINOPHIL [2]: 0.4%
- ERYTHROCYTE COUNT [2]: 6.96 x10E6/uL
- HEMATOCRIT [2]: 41.12%
- HEMOGLOBIN [2]: 15.24 G/DL
- LEUKOCYTE COUNT [2]: 11.06 x10E3/uL
- LYMPHOCYTE [2]: 88.6%
- MEAN CORPUSCULAR HEMOGLOBIN [2]: 21.96 pg
- MEAN CORPUSCULAR HEMOGLOBIN CONCENTRATION [2]: 37.1 G/DL
- MEAN CORPUSCULAR VOLUME [2]: 59.12 fL
- MONOCYTE [2]: 0.2%
- NEUTROPHIL [2]: 10.8%
- PLATELET COUNT [2]: 1155.8 x10E3/uL
- ALANINE AMINOTRANSFERASE [2]: 36.33 u/L
- ALBUMIN [2]: 3.72 G/DL
- ALKALINE PHOSPHATASE [2]: 340.33 u/L
- ASPARTATE AMINOTRANSFERASE [2]: 68.33 u/L
- BLOOD UREA NITROGEN [2]: 15 mg/dL
- CHLORIDE [2]: 108.17 MEQ/L
- CHOLESTEROL [2]: 74.67 mg/dL
- CREATINE PHOSPHOKINASE [2]: 110.67 u/L
- CREATININE [2]: 0.47 mg/dL
- GLUCOSE [2]: 171.33 mg/dL
- PHOSPHORUS [2]: 10.05 mg/dL
- POTASSIUM [2]: 6.7 MEQ/L
- SODIUM [2]: 155.5 MEQ/L
- TOTAL PROTEIN [2]: 6.33 G/DL
- BASOPHIL [3]: 0%
- EOSINOPHIL [3]: 0%
- ERYTHROCYTE COUNT [3]: 6.96 x10E6/uL
- HEMATOCRIT [3]: 39.2%
- HEMOGLOBIN [3]: 14.2 G/DL
- LEUKOCYTE COUNT [3]: 12.93 x10E3/uL
- LYMPHOCYTE [3]: 90%
- MEAN CORPUSCULAR HEMOGLOBIN [3]: 20.4 pg
- MEAN CORPUSCULAR HEMOGLOBIN CONCENTRATION [3]: 36.27 G/DL
- MEAN CORPUSCULAR VOLUME [3]: 56.3 fL
- MONOCYTE [3]: 0%
- NEUTROPHIL [3]: 10%
- PLATELET COUNT [3]: 1074.33 x10E3/uL
- ALANINE AMINOTRANSFERASE [3]: 36.67 u/L
- ALBUMIN [3]: 3.4 G/DL
- ALKALINE PHOSPHATASE [3]: 240 u/L
- ASPARTATE AMINOTRANSFERASE [3]: 66.33 u/L
- BLOOD UREA NITROGEN [3]: 13 mg/dL
- CHLORIDE [3]: 106.33 MEQ/L
- CHOLESTEROL [3]: 63 mg/dL
- CREATINE PHOSPHOKINASE [3]: 121.33 u/L
- CREATININE [3]: 0.53 mg/dL
- GLUCOSE [3]: 176.67 mg/dL
- PHOSPHORUS [3]: 10.7 mg/dL
- POTASSIUM [3]: 6.8 MEQ/L
- SODIUM [3]: 151.33 MEQ/L
- TOTAL PROTEIN [3]: 5.6 G/DL
- BASOPHIL [4]: 0%
- EOSINOPHIL [4]: 0%
- ERYTHROCYTE COUNT [4]: 6.08 x10E6/uL
- HEMATOCRIT [4]: 34.23%
- HEMOGLOBIN [4]: 12.7 G/DL
- LEUKOCYTE COUNT [4]: 19.4 x10E3/uL
- LYMPHOCYTE [4]: 93.33%
- MEAN CORPUSCULAR HEMOGLOBIN [4]: 21 pg
- MEAN CORPUSCULAR HEMOGLOBIN CONCENTRATION [4]: 37.13 G/DL
- MEAN CORPUSCULAR VOLUME [4]: 56.57 fL
- MONOCYTE [4]: 0%
- NEUTROPHIL [4]: 6.67%
- PLATELET COUNT [4]: 1222.33 x10E3/uL
- ALANINE AMINOTRANSFERASE [4]: 34 u/L
- ALBUMIN [4]: 3.43 G/DL
- ALKALINE PHOSPHATASE [4]: 218.33 u/L
- ASPARTATE AMINOTRANSFERASE [4]: 56.33 u/L
- BLOOD UREA NITROGEN [4]: 11 mg/dL
- CHLORIDE [4]: 108 MEQ/L
- CHOLESTEROL [4]: 63.33 mg/dL
- CREATINE PHOSPHOKINASE [4]: 106.33 u/L
- CREATININE [4]: 0.5 mg/dL
- GLUCOSE [4]: 169.67 mg/dL
- PHOSPHORUS [4]: 10.13 mg/dL
- POTASSIUM [4]: 6.4 MEQ/L
- SODIUM [4]: 152 MEQ/L
- TOTAL PROTEIN [4]: 5.67 G/DL
- BASOPHIL [5]: 0%
- EOSINOPHIL [5]: 0%
- ERYTHROCYTE COUNT [5]: 6.75 x10E6/uL
- HEMATOCRIT [5]: 40.45%
- HEMOGLOBIN [5]: 14.85 G/DL
- LEUKOCYTE COUNT [5]: 13.75 x10E3/uL
- LYMPHOCYTE [5]: 88.5%
- MEAN CORPUSCULAR HEMOGLOBIN [5]: 22.05 pg
- MEAN CORPUSCULAR HEMOGLOBIN CONCENTRATION [5]: 36.65 G/DL
- MEAN CORPUSCULAR VOLUME [5]: 59.95 fL
- MONOCYTE [5]: 0%
- NEUTROPHIL [5]: 11.5%
- PLATELET COUNT [5]: 1313.5 x10E3/uL
- ALANINE AMINOTRANSFERASE [5]: 30.33 u/L
- ALBUMIN [5]: 3.63 G/DL
- ALKALINE PHOSPHATASE [5]: 215 u/L
- ASPARTATE AMINOTRANSFERASE [5]: 58.67 u/L
- BLOOD UREA NITROGEN [5]: 11.33 mg/dL
- CHLORIDE [5]: 106.67 MEQ/L
- CHOLESTEROL [5]: 79 mg/dL
- CREATINE PHOSPHOKINASE [5]: 134.33 u/L
- CREATININE [5]: 0.5 mg/dL
- GLUCOSE [5]: 175 mg/dL
- PHOSPHORUS [5]: 11.67 mg/dL
- POTASSIUM [5]: 7.4 MEQ/L
- SODIUM [5]: 153.33 MEQ/L
- TOTAL PROTEIN [5]: 6.17 G/DL
- BASOPHIL [6]: 0%
- EOSINOPHIL [6]: 0.33%
- ERYTHROCYTE COUNT [6]: 6.63 x10E6/uL
- HEMATOCRIT [6]: 39.83%
- HEMOGLOBIN [6]: 14.4 G/DL
- LEUKOCYTE COUNT [6]: 13.93 x10E3/uL
- LYMPHOCYTE [6]: 93.67%
- MEAN CORPUSCULAR HEMOGLOBIN [6]: 21.83 pg
- MEAN CORPUSCULAR HEMOGLOBIN CONCENTRATION [6]: 36.23 G/DL
- MEAN CORPUSCULAR VOLUME [6]: 60.27 fL
- MONOCYTE [6]: 0%
- NEUTROPHIL [6]: 6%
- PLATELET COUNT [6]: 1193.67 x10E3/uL
- ALANINE AMINOTRANSFERASE [6]: 45.67 u/L
- ALBUMIN [6]: 3.47 G/DL
- ALKALINE PHOSPHATASE [6]: 280 u/L
- ASPARTATE AMINOTRANSFERASE [6]: 64.67 u/L
- BLOOD UREA NITROGEN [6]: 9.67 mg/dL
- CHLORIDE [6]: 108 MEQ/L
- CHOLESTEROL [6]: 65.67 mg/dL
- CREATINE PHOSPHOKINASE [6]: 144.33 u/L
- CREATININE [6]: 0.5 mg/dL
- GLUCOSE [6]: 162.33 mg/dL
- PHOSPHORUS [6]: 9.47 mg/dL
- POTASSIUM [6]: 6.3 MEQ/L
- SODIUM [6]: 152.67 MEQ/L
- TOTAL PROTEIN [6]: 5.8 G/DL
